Experimental data reported in EPA's ToxRefDB 2.

How the values were obtained:
[1] = test system: rat; conditions: Fertility (Segment I); Oral; Gavage/Intubation; dose end: 1 generation; group: parental; systemic / in life observation / clinical signs / alopecia + systemic / in life observation / clinical signs / respiration (rales) + …
[2] = test system: rat; conditions: Chronic toxicity, Oral, Feed, dose end: 182 day, group: systemic
[3] = test system: rat; conditions: Fertility (Segment I), Oral, Gavage/Intubation, dose end: 1 generation, group: parental
[4] = test system: rat; conditions: Sub-acute repeat dose toxicity, wistar, Oral, Gavage/Intubation, dose end: 14 day, group: systemic
[5] = test system: rat; conditions: Sub-acute repeat dose toxicity; wistar; Oral; Feed; dose end: 14 day; group: systemic; systemic / hematology / leukocyte (wbc) count differential / leukocyte (wbc) + systemic / hematology / lymphocyte / lymphocyte + systemic / …
[6] = test system: dog; conditions: Chronic toxicity; beagle; Oral; Gavage/Intubation; dose end: 364 day; group: systemic; systemic / organ weight / liver / absolute + systemic / pathology microscopic / testes / cellular alteration + systemic / pathology …
[7] = test system: dog; conditions: Sub-acute repeat dose toxicity, beagle, Oral, Gavage/Intubation, dose end: 14 day, group: systemic
[8] = test system: rat; conditions: Chronic toxicity, wistar, Oral, Feed, dose end: 182 day, group: systemic
[9] = test system: rabbit; conditions: Prenatal developmental toxicity study, Oral, Gavage/Intubation, dose end: 19 GD
[10] = test system: rat; conditions: Prenatal developmental toxicity study, Oral, Gavage/Intubation, dose end: 18 GD
[11] = test system: dog; conditions: Chronic toxicity; beagle; Oral; Gavage/Intubation; dose end: 364 day; group: systemic; systemic / organ weight / liver / absolute + systemic / pathology microscopic / testes / cellular alteration + systemic / pathology …; remark: listed apart in the source
[12] = test system: dog; conditions: Sub-acute repeat dose toxicity; beagle; Oral; Gavage/Intubation; dose end: 4 day; group: systemic; systemic / in life observation / clinical signs / erythema + systemic / in life observation / clinical signs / reduced activity + systemic…
[13] = test system: primate; conditions: Sub-acute repeat dose toxicity, marmoset, Oral, Gavage/Intubation, dose end: 4 day, group: systemic
[14] = test system: dog; conditions: Sub-acute repeat dose toxicity; beagle; Oral; Gavage/Intubation; dose end: 4 day; group: systemic; systemic / clinical chemistry / [other] / [other] + systemic / clinical chemistry / apolipoprotein a1 / apolipoprotein a1 + systemic / …
[15] = test system: rat; conditions: Subchronic oral toxicity in rodents, wistar, Gavage/Intubation, dose end: 91 day, group: systemic
[16] = test system: primate; conditions: Subchronic oral toxicity in nonrodent, Gavage/Intubation, dose end: 91 day, group: systemic, systemic / in life observation / clinical signs / emesis
[17] = test system: rat; conditions: Sub-acute repeat dose toxicity; Oral; Gavage/Intubation; dose end: 5 day; group: systemic; systemic / in life observation / clinical signs / arrhythmia + systemic / in life observation / clinical signs / dehydration + systemic / in…
[18] = test system: rabbit; conditions: Sub-acute repeat dose toxicity, Oral, Gavage/Intubation, dose end: 5 day, group: systemic
[19] = systemic / clinical chemistry / albumin-globulin ratio / albumin-globulin ratio + systemic / clinical chemistry / glucose / glucose + …
[20] = systemic / pathology gross / uterus / cyst + systemic / pathology microscopic / uterus / cyst + systemic / organ weight / testes / absolute…
[21] = systemic / in life observation / body weight / body weight gain + systemic / in life observation / clinical signs / abnormal feces + …
[22] = systemic / pathology microscopic / testes / dilatation
[23] = systemic / clinical chemistry / cytochrome p450, nos / cytochrome p450, nos
[24] = systemic / clinical chemistry / cytochrome p450, nos / cytochrome p450, nos + systemic / clinical chemistry / urea nitrogen / urea nitrogen…
[25] = systemic / clinical chemistry / [other] / [other] + systemic / clinical chemistry / alanine aminotransferase (alt/sgpt) / alanine …
[26] = systemic / pathology gross / full gross necropsy / rhabdomyosarcoma + systemic / clinical chemistry / albumin-globulin ratio / albumin-…
[27] = group: developmental, systemic / in life observation / body weight / fetal weight
[28] = group: maternal, systemic / in life observation / body weight / body weight
[29] = group: developmental, developmental / developmental malformation / bone / [other] + developmental / developmental malformation / bone / delayed ossification + …
[30] = group: maternal, systemic / in life observation / body weight / body weight + systemic / in life observation / body weight / body weight gain + systemic / in…
[31] = systemic / in life observation / clinical signs / defecation (diarrhea) + systemic / pathology microscopic / salivary glands / degeneration…
[32] = systemic / pathology microscopic / salivary glands / degeneration + systemic / hematology / fibrinogen / fibrinogen + systemic / pathology …
[33] = systemic / in life observation / body weight / body weight + systemic / in life observation / clinical signs / abnormal feces + systemic / …
[34] = systemic / pathology microscopic / intestine large / hyperplasia + systemic / pathology microscopic / stomach / hyperplasia
[35] = systemic / in life observation / body weight / body weight + systemic / in life observation / clinical signs / abnormal respiratory sounds…
[36] = systemic / in life observation / clinical signs / nasal discharge + systemic / in life observation / food consumption / food consumption

## CCc1cc(C2=C(C(=O)O)N(c3ccccc3C(F)(F)F)S(=O)(=O)c3ccccc32)cc2c1OCO2 [Fandosentan]
[1]
  LEL: 25 mg/kg/day
  LOAEL: > 250 mg/kg/day
  NEL: < 25 mg/kg/day
  NOAEL: ≥ 250 mg/kg/day
[2]; [19]
  LOAEL: > 300 mg/kg/day
  NOAEL: ≥ 300 mg/kg/day
[2]; [20]
  LEL: 75 mg/kg/day
  NEL: < 75 mg/kg/day
[3]; [21]
  LOAEL: > 250 mg/kg/day
  NOAEL: ≥ 250 mg/kg/day
[3]; [22]
  LEL: 25 mg/kg/day
  NEL: < 25 mg/kg/day
[4]; [23]
  LEL: 100 mg/kg/day
  NEL: < 100 mg/kg/day
[4]; [24]
  LOAEL: > 500 mg/kg/day
  NOAEL: ≥ 500 mg/kg/day
[5]
  LEL: 100 mg/kg/day
  LOAEL: > 750 mg/kg/day
  NEL: < 100 mg/kg/day
  NOAEL: ≥ 750 mg/kg/day
[6]
  LEL: 10 mg/kg/day
  LOAEL: > 100 mg/kg/day
  NEL: < 10 mg/kg/day
  NOAEL: ≥ 100 mg/kg/day
[7]; [25]
  LOAEL: > 200 mg/kg/day
  NOAEL: ≥ 200 mg/kg/day
[7]; systemic / in life observation / clinical signs / defecation (diarrhea) + systemic / clinical chemistry / [other] / [other] + systemic / …
  LEL: 30 mg/kg/day
[8]; [26]
  LOAEL: > 300 mg/kg/day
  NOAEL: ≥ 300 mg/kg/day
[8]; [20]
  LEL: 75 mg/kg/day
  NEL: < 75 mg/kg/day
[9]; [27]
  LEL: 50 mg/kg/day
  LOAEL: > 50 mg/kg/day
  NOAEL: ≥ 50 mg/kg/day
[9]; [28]
  LEL: 50 mg/kg/day
  LOAEL: > 50 mg/kg/day
  NEL: 25 mg/kg/day
  NOAEL: ≥ 50 mg/kg/day
[10]; [29]
  LOAEL: > 250 mg/kg/day
  NOAEL: ≥ 250 mg/kg/day
[10]; group: developmental, developmental / developmental malformation / bone / [other] + developmental / developmental malformation / face / [other] + developmental / …
  LEL: 100 mg/kg/day
[10]; [30]
  LEL: 250 mg/kg/day
  LOAEL: > 250 mg/kg/day
  NOAEL: ≥ 250 mg/kg/day
[11]
  LEL: 10 mg/kg/day
  LOAEL: > 100 mg/kg/day
  NEL: < 10 mg/kg/day
  NOAEL: ≥ 100 mg/kg/day

## Nc1cc2c3c(c1)C(c1ccccc1)=N[C@@H](NC(=O)c1cccnc1)C(=O)N3CC2 [CI-1044]
[12]
  LEL: 50 mg/kg/day
  LOAEL: > 50 mg/kg/day
  NEL: < 50 mg/kg/day
  NOAEL: ≥ 50 mg/kg/day
[13]; [31]
  LOAEL: > 320 mg/kg/day
  NOAEL: ≥ 320 mg/kg/day
[13]; [32]
  LEL: 80 mg/kg/day
  NEL: < 80 mg/kg/day
[14]
  LEL: 20 mg/kg/day
  LOAEL: > 20 mg/kg/day
  NEL: < 20 mg/kg/day
  NOAEL: ≥ 20 mg/kg/day
[15]; [33]
  LOAEL: > 25 mg/kg/day
  NOAEL: ≥ 25 mg/kg/day
[15]; [34]
  LEL: 3 mg/kg/day
  NEL: < 3 mg/kg/day
[16]
  LEL: 1 mg/kg/day
  LOAEL: > 15 mg/kg/day
  NEL: < 1 mg/kg/day
  NOAEL: ≥ 15 mg/kg/day
[17]
  LOAEL: > 50 mg/kg/day
  NEL: 10 mg/kg/day
  NOAEL: ≥ 50 mg/kg/day
[18]; [35]
  LOAEL: > 1000 mg/kg/day
  NOAEL: ≥ 1000 mg/kg/day
[18]; [36]
  LEL: 50 mg/kg/day
  NEL: < 50 mg/kg/day
